Experimental data reported in PubChem BioAssay AID1963962 (Molecular Pharmacology Branch, DTP, NCI, 2024).
pIC50: −log10 of the molar value.

System: 967376-340-R-J2-PDC multicell spheroid viability
Assay: Anticancer human tumor 967376-340-R-J2-PDC patient-derived colon adenocarcinoma cell line growth inhibition [PI3K]
Settings: for pIC50: curve of first compound; for viability, T/C: stronger effect = lower value
Text: Combinatorial screen of targeted agents with the PI3K inhibitors inavolisib, alpelisib, duvelisib, and copanlisib in multi-cell type tumor spheroids
A high-throughput screen of multi-cell type tumor spheroids was designed to identify active combinations of targeted small molecules and PI3K pathway inhibitors. Complex spheroids include a stromal component modeled by human endothelial cells (HUVEC) and fibroblasts modeled by human mesenchymal stem cells (MSCs). The concentration ranges selected for each drug and investigational agent were based upon clinically achievable concentrations if the clinical Cmax of the agent was known.
Compounds. The drugs and investigational agents: inavolisib (NSC800729), alpelisib (NSC765974), duvelisib (NSC772469), copanlisib (NSC816437), ipatasertib (NSC767898), afuresertib (NSC778305), talazoparib (NSC767125), sapanisertib (NSC764658), selumetinib (NSC741078), tovorafenib (DAY101, NSC766906), vemurafenib (NSC761431), ravoxertinib (NSC781343), sotorasib (NSC818433), MRTX1133 (NSC 836407), abemaciclib (NSC 768073), palbociclib (NSC758247), venetoclax (NSC 766270), SY5609 (NSC837396), enzalutamide (NSC755605), and darolutamide (NSC825331), were obtained from the National Cancer Institute (NCI) Developmental Therapeutics Program Chemical Repository. The FDA-approved anticancer drug set is available from the NCI Developmental Therapeutics Program. […] The stock solutions were prepared in dimethyl sulfoxide (DMSO, Sigma-Aldrich, St. Louis, MO, cat. D2650) at 800-fold the tested concentration and stored at -70 degrees C prior to their use. All drugs and investigational agents were tested over a range starting from a high concentration at or near the clinical Cmax and decreasing in half-log increments. If the clinical Cmax for an agent had not been determined, the highest concentration tested was 10 microM.
Cell Culture. All cells were maintained in an incubator at 37 degrees C and 5% CO2 with 95% humidity. The PDC lines were cultured according to standard operating procedures established by the NCI PDMR (https://pdmr.cancer.gov/sops/default.htm). All PDCs were thawed and cultured in Matrigel-coated flasks prepared with a working solution of 1X Ham's F-12 nutrient mix, without supplementation (Invitrogen, Waltham, MA, cat. 11765054), 100 U/mL penicillin-streptomycin (Invitrogen, cat. 15140122), and 2.5% Matrigel (Corning Inc., Corning, NY, cat. 354248) for the first three passages. The 354836-022-R-J1-PDC, 475296-252-R-J1-PDC, and 997726-040-R-J2-PDC lines were cultured in 6A media, which includes advanced DMEM/F-12 (Thermo Fisher Scientific, cat. 12634028), 10 mM HEPES (Thermo Fisher Scientific, cat. 15630080), 1X GlutaMAX supplement (Thermo Fisher Scientific, cat. 35050061), 0.1 mg/mL primocin (InvivoGen, San Diego, CA, cat. ant-pm-2), 10% defined fetal bovine serum, heat inactivated (HyClone Laboratories Inc., Logan, UT, cat. SH30070.03HI), 50% L-WRN conditioned media (ATCC, cat. CRL-3276), 1.25 mM N-Acetyl-L-cysteine (Sigma-Aldrich, cat. A9165), 10 mM nicotinamide (Sigma-Aldrich, cat. N0636), 1X B-27 supplement (Thermo Fisher Scientific, cat. 17504044), 1X N-2 supplement (Thermo Fisher Scientific, cat. 17502048), and 10 microM Y-27632 dihydrochloride (Tocris Bioscience, Bristol, United Kingdom, cat. 1254). The 624824-186-R-J2-PDC line was cultured in 6C/Colon 1B media, which includes all 6A media components plus 50 ng/mL human EGF recombinant protein (Thermo Fisher Scientific, cat. PHG0311). […]
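Note: spheroids exposed to agents for 7 days before read-out.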
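Throughout, for viability, T/C: luminescence used as surrogate of cell viability.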

For `CC1(C)CCC(Nc2ncc(C(F)(F)F)c(-c3c[nH]c4c(P(C)(C)=O)c(C#N)ccc34)n2)CN1` (configuration not stated) + CC(Nc1ccc2c(c1)OCCn1cc(N3C(=O)OCC3C(F)F)nc1-2)C(N)=O, the pIC50 (second compound 0.00316 µM) was 5.17, the pIC50 (second compound 0.01 µM) was < 5.00 and the pIC50 (second compound 0.0316 µM) was 5.18. The pIC50 (second compound 0.1 µM) was 5.64, the pIC50 (second compound 0.316 µM) was 5.44 and the pIC50 (second compound 1 µM) was 6.56. The viability, T/C (second compound 0.00316 µM, first compound 0.0316 µM) was 92.7%, the viability, T/C (second compound 0.00316 µM, first compound 0.1 µM) was 69.1% and the viability, T/C (second compound 0.00316 µM, first compound 0.316 µM) was 68%. It also gave a viability, T/C (second compound 0.00316 µM, first compound 1 µM) of 64.7%, a viability, T/C (second compound 0.00316 µM, first compound 3.16 µM) of 57.6% and a viability, T/C (second compound 0.00316 µM, first compound 10 µM) of 44.3%. For the same molecule, the viability, T/C (second compound 0.01 µM, first compound 0.0316 µM) was 79%, the viability, T/C (second compound 0.01 µM, first compound 0.1 µM) was 88.1% and the viability, T/C (second compound 0.01 µM, first compound 0.316 µM) was 64.8%. It also gave a viability, T/C (second compound 0.01 µM, first compound 1 µM) of 53.2%, a viability, T/C (second compound 0.01 µM, first compound 3.16 µM) of 59.6% and a viability, T/C (second compound 0.01 µM, first compound 10 µM) of 49%. The viability, T/C (second compound 0.0316 µM, first compound 0.0316 µM) was 58.4%, the viability, T/C (second compound 0.0316 µM, first compound 0.1 µM) was 76.8% and the viability, T/C (second compound 0.0316 µM, first compound 0.316 µM) was 63.3%. It also gave a viability, T/C (second compound 0.0316 µM, first compound 1 µM) of 66.2%, a viability, T/C (second compound 0.0316 µM, first compound 3.16 µM) of 54.1% and a viability, T/C (second compound 0.0316 µM, first compound 10 µM) of 46.7%. For the same molecule, the viability, T/C (second compound 0.1 µM, first compound 0.0316 µM) was 58.5%, the viability, T/C (second compound 0.1 µM, first compound 0.1 µM) was 74.1% and the viability, T/C (second compound 0.1 µM, first compound 0.316 µM) was 69.7%. For the same molecule, the viability, T/C (second compound 0.1 µM, first compound 1 µM) was 54%, the viability, T/C (second compound 0.1 µM, first compound 3.16 µM) was 48.1% and the viability, T/C (second compound 0.1 µM, first compound 10 µM) was 25.6%. It also gave a viability, T/C (second compound 0.316 µM, first compound 0.0316 µM) of 56.3%, a viability, T/C (second compound 0.316 µM, first compound 0.1 µM) of 67.3% and a viability, T/C (second compound 0.316 µM, first compound 0.316 µM) of 56.9%. The viability, T/C (second compound 0.316 µM, first compound 1 µM) was 52.9%, the viability, T/C (second compound 0.316 µM, first compound 3.16 µM) was 54.9% and the viability, T/C (second compound 0.316 µM, first compound 10 µM) was 24.8%. The viability, T/C (second compound 1 µM, first compound 0.0316 µM) was 53.6%, the viability, T/C (second compound 1 µM, first compound 0.1 µM) was 53.4% and the viability, T/C (second compound 1 µM, first compound 0.316 µM) was 43.5%. The viability, T/C (second compound 1 µM, first compound 1 µM) was 50.7%, the viability, T/C (second compound 1 µM, first compound 3.16 µM) was 36.1% and the viability, T/C (second compound 1 µM, first compound 10 µM) was 24.6%.
